Tests used:
Experiment in all cases: relative viability (nuclei count vs DMSO), 5 days (fraction); higher = more cells survive
Vismodegib + Olaparib = compound: CS(=O)(=O)c1ccc(C(=O)Nc2ccc(Cl)c(-c3ccccn3)c2)c(Cl)c1 [Vismodegib] + O=C(c1cc(Cc2n[nH]c(=O)c3ccccc23)ccc1F)N1CCN(C(=O)C2CC2)CC1 [Olaparib] (partner 8 µM)
How it was run: (§1)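 Relative viability equals treated-well nuclei counts divided by vehicle-well nuclei counts. Counts came from 4× images of lung cancer cell lines grown in 1536-well plates for 5 days after pin-tool dosing on the day after seeding. Dosing used one drug alone or a fixed anchor-drug dose plus five library-drug doses (not always all listed) in √10 steps, and values are medians of duplicate plates.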

VE-821 + Palbociclib = compound: CS(=O)(=O)c1ccc(-c2cnc(N)c(C(=O)Nc3ccccc3)n2)cc1 [VE-821] + CC(=O)c1c(C)c2cnc(Nc3ccc(N4CCNCC4)cn3)nc2n(C2CCCC2)c1=O [Palbociclib] (partner 0.5 µM)
How it was run: as §1

VE-821 + Pictilisib = compound: CS(=O)(=O)c1ccc(-c2cnc(N)c(C(=O)Nc3ccccc3)n2)cc1 [VE-821] + CS(=O)(=O)N1CCN(Cc2cc3nc(-c4cccc5[nH]ncc45)nc(N4CCOCC4)c3s2)CC1 [Pictilisib] (partner 1 µM)
How it was run: as §1

Vismodegib + Lapatinib = compound: CS(=O)(=O)c1ccc(C(=O)Nc2ccc(Cl)c(-c3ccccn3)c2)c(Cl)c1 [Vismodegib] + CS(=O)(=O)CCNCc1ccc(-c2ccc3ncnc(Nc4ccc(OCc5cccc(F)c5)c(Cl)c4)c3c2)o1 [Lapatinib] (partner 2 µM)
How it was run: as §1

| Cell Line | relative viability (Vismodegib + Olaparib; first compound 0.08 µM) | relative viability (Vismodegib + Olaparib; first compound 0.253 µM) | relative viability (Vismodegib + Olaparib; first compound 0.8 µM) | relative viability (Vismodegib + Olaparib; first compound 2.53 µM) | relative viability (Vismodegib + Olaparib; first compound 8 µM) | relative viability (VE-821 + Palbociclib; first compound 0.08 µM) | relative viability (VE-821 + Palbociclib; first compound 0.253 µM) | relative viability (VE-821 + Palbociclib; first compound 0.8 µM) | relative viability (VE-821 + Palbociclib; first compound 2.53 µM) | relative viability (VE-821 + Palbociclib; first compound 8 µM) | relative viability (VE-821 + Pictilisib; first compound 0.08 µM) | relative viability (VE-821 + Pictilisib; first compound 0.253 µM) | relative viability (VE-821 + Pictilisib; first compound 0.8 µM) | relative viability (VE-821 + Pictilisib; first compound 2.53 µM) | relative viability (VE-821 + Pictilisib; first compound 8 µM) | relative viability (Vismodegib + Lapatinib; first compound 0.08 µM) | relative viability (Vismodegib + Lapatinib; first compound 0.253 µM) | relative viability (Vismodegib + Lapatinib; first compound 0.8 µM) | relative viability (Vismodegib + Lapatinib; first compound 2.53 µM) | relative viability (Vismodegib + Lapatinib; first compound 8 µM) |
| --- | --- | --- | --- | --- | --- | --- | --- | --- | --- | --- | --- | --- | --- | --- | --- | --- | --- | --- | --- | --- |
| ChaGo-K-1 | 0.452 | 0.436 | 0.455 | 0.398 | 0.405 | 0.95 | 0.956 | 0.909 | 0.905 | 0.803 | 0.705 | 0.712 | 0.927 | 0.797 | 0.339 |  |  |  |  |  |
| HCC-44 | 0.945 | 0.919 | 0.981 | 1.01 | 0.962 | 0.956 | 0.981 | 0.992 | 1.08 | 1.07 | 1.86 | 0.468 | 0.701 | 0.708 | 0.79 | 0.998 | 1.02 | 0.965 | 1.04 | 0.991 |
| NCI-H441 | 0.561 |  | 0.579 | 0.55 | 0.55 | 0.251 | 0.167 | 0.253 | 0.246 | 0.228 | 0.56 | 0.527 | 0.537 | 0.519 | 0.352 |  |  |  |  |  |
| NCI-H1299 | 0.913 | 0.964 | 0.967 | 0.935 | 0.951 |  |  |  |  |  | 0.769 | 0.606 | 0.689 | 0.771 | 0.357 | 0.952 | 0.893 | 0.992 | 0.968 | 1 |
| LU99A | 0.306 | 0.278 | 0.292 | 0.267 | 0.247 | 0.426 | 0.456 | 0.434 | 0.408 | 0.267 | 0.362 | 0.311 | 0.29 | 0.319 | 0.253 | 0.928 | 1.04 | 1.04 | 1.04 | 0.979 |
| NCI-H520 | 0.314 | 0.366 | 0.397 | 0.281 | 0.354 | 0.243 | 0.242 | 0.177 | 0.269 | 0.188 | 0.321 | 0.357 |  | 0.325 | 0.276 | 0.856 | 0.921 | 0.977 | 0.844 | 1.01 |
| EPLC-272H | 0.839 | 0.69 | 0.674 | 0.783 | 0.837 | 0.342 | 0.313 | 0.295 | 0.33 | 0.326 | 0.427 | 0.32 | 0.347 | 0.399 | 0.309 | 0.789 | 0.893 | 0.947 | 0.939 | 0.91 |
| PC-14 | 0.262 | 0.175 | 0.254 | 0.248 | 0.254 | 0.648 | 0.46 | 0.455 | 0.351 | 0.169 | 0.91 | 0.734 | 0.708 | 0.759 | 0.74 | 0.273 | 0.338 | 0.29 | 0.337 | 0.337 |
| LCLC-103H | 0.759 | 0.757 | 0.73 | 0.733 | 0.832 | 0.552 | 0.513 | 0.524 | 0.523 | 0.448 | 0.572 | 0.51 | 0.663 | 0.75 | 0.494 |  |  |  |  |  |
